Entries after “also recorded” stand apart in the source; their conditions may differ. Square brackets hold non-standard residues; d marks the D form. Peptide text beside a SMILES is read from it. Ahx = NCCCCCC(=O)O
Tested on: FMDV 3A protein homodimerization in BHK-21 cells
Format: cell-based, foot-and-mouth disease virus (FMDV)

Compound | 3A dimerization (PLA fluorescent dots relative to cells incubated with no peptide)
CC[C@H](C)[C@H](NC(=O)[C@H](CC(C)C)NC(=O)[C@@H]1CCCN1C(=O)[C@H](CCCNC(=N)N)NC(=O)[C@H](CC(C)C)NC(=O)[C@H](CCC(=O)O)NC(=O)CCCCCNC(=O)[C@H](CCCNC(=N)N)NC(=O)[C@H](CCCNC(=N)N)NC(=O)[C@H](CCCNC(=N)N)NC(=O)[C@H](CCCNC(=N)N)NC(=O)[C@H](CCCNC(=N)N)NC(=O)[C@H](CCCNC(=N)N)NC(=O)[C@@H](N)CCCNC(=N)N)C(=O)N[C@@H](CCC(N)=O)C(=O)N[C@@H](CCC(N)=O)C(N)=O [Peptide R7-α2] (H-RRRRRRR[Ahx]ELRPLIQQ-NH2; N-terminus assumed) | lack of effect
RRRRRRRXFFEGMVHDS [Peptide R7-α1] | decreasing trend; also recorded: higher inhibitions

Source: article PMC4624780 (PLoS ONE, 2015)
